According to patent US10793544B2, “Disubstituted and trisubstituted 1,2,3-triazoles as Wnt inhibitors” (The Board of Regents of the University of Texas System, priority 2016, dated 2020):

How the values were obtained:
[1] = test system: Wnt/b-catenin pathway activity in L-Wnt-STF cells; assay: Suppression of Wnt signaling in L-Wnt-STF cells (Firefly luciferase reporter); assay type: cell-based
Method: Chemical synthesis is described below in Example 3. L-Wnt-STF cells (Chen, et al., 2009) were seeded into each well of a white opaque 96-well plate and compounds added immediately thereafter. Luciferase activities (Firefly luciferase for Wnt/b-catenin pathway activity and Renilla luciferase activity as an irrelevant cell signal) were measured using a previously reported protocol (Wang, et al., 2013).
Additional IWPs to suppress Wnt signaling in L-Wnt-STF cells were synthesized and tested for their ability to suppress Wnt signaling as described above. The relevant data for some of the compounds are shown below in Table 1.

Dvl2/3 phosphorylation = assay: Western blot for biochemical markers of Wnt signaling in Hela cells: Dvl2/3 phosphorylation; assay type: cell-based; details: incubated 24 h, Western blot (FIG. 2)
Source text: (§1) Cell lysates were then subjected to Western blot analysis for biochemical markers of Wnt signaling (LRP6 and Dvl2/3 phosphorylation).
(§2) Dishevelled (Dvl) phosphorylation is associated with both canonical and non-canonical Wnt signaling pathways.

LRP6 phosphorylation = assay: Western blot for biochemical markers of Wnt signaling in Hela cells: LRP6 phosphorylation; assay type: cell-based; details: incubated 24 h, Western blot (FIG. 2)
Source text: as §1, §2

Axin2 expression = details: DLD-1 cells, exposure for 2 h; cited from earlier work

## Cc1cc(-n2nnc(CC(=O)Nc3ccc(-c4ccccc4)cn3)c2-c2ccccc2)ccn1
[1]; alternative substitution pattern of the triazole
  EC50: 0.1 nM

## O=C(Cn1nnc(-c2ccncc2)c1-c1ccccc1)Nc1ccc(-c2ccccc2)cn1 [IWP-O1, 2-(5-Phenyl-4-(pyridin-4-yl)-1H-1,2,3-triazol-1-yl)-N-(5-phenylpyridin-2-yl)acetamide]
Dvl2/3 phosphorylation
  phosphorylation of Dvl2/3: effectively suppressed
LRP6 phosphorylation
  phosphorylation of LRP6: suppressed

## O=C(Nc1cccc2cccnc12)c1ccc(N2C(=O)[C@@H]3[C@H](C2=O)[C@@H]2C=C[C@H]3C2)cc1 [IWR-1]
Axin2 expression
  expression of Axin2: decrease

## Cc1cc(-c2ncc(CC(=O)Nc3ccc(-c4cnccn4)cn3)cc2C)ccn1 [LGK974, reference compound]
[1]; Table 1 triazole substituent screening, L-Wnt-STF cells, normalized to LGK974 control
  EC50: 0.2 nM
